Test: Severe test against heat (storage at 45° C. for 3 months, residual rate by HPLC)
Format: physicochemical
Description: In preparation of 0.1 mM sodium acetate pH buffer of pH 5.5 in Example 2, four kinds of solutions were prepared so that concentration of sodium chloride was 3 mM, 10 mM, 154 mM and 500 mM. Elcatonin was dissolved therein so that elcatonin concentration was 7 μg/ml. Each of the compositions was filled in an ampule in the same manner as in Example 1 to prepare elcatonin injections having four kinds of ionic strength. The resulting elcatonin injections were stored at 45° C. for 3 months and residual rate was obtained under the same conditions as in Test Example 1.

For “1-butyric acid-7-(L-2-aminobutyric acid)-26- o L-aspartic acid-27-L-valine-29-L-alanine-calcitonin (salmon) [Elcatonin]”, the “Residual rate (%)” value (NaCl 3 mM, ionic strength 0.003, 0.1 mM sodium acetate pH 5.5, elcatonin 7 μg/ml) was 50%, the “Residual rate (%)” value (NaCl 10 mM, ionic strength 0.010, 0.1 mM sodium acetate pH 5.5, elcatonin 7 μg/ml) was 79% and the “Residual rate (%)” value (NaCl 154 mM, ionic strength 0.154, 0.1 mM sodium acetate pH 5.5, elcatonin 7 μg/ml) was 98%. The “Residual rate (%)” value (NaCl 500 mM, ionic strength 0.500, 0.1 mM sodium acetate pH 5.5, elcatonin 7 μg/ml) was 97%.

From patent US4977139A, “Aqueous elcatonin solution composition” (Toyo Jozo Company, Ltd., priority 1988, dated 1990)
